Ends that are not written are not given here.
Assays:
[1] = system: VEGF-induced retinal vascular permeability; experiment: Fluorescein angiography after intravitreal co-injection with VEGF164; assay type: in vivo, mouse (C57BL/6J); details: mouse eye, co-injected intravitreally with 12.6 ng VEGF164 at 20-fold molar excess; 20 h after injection; qualitative
Method: (§1) Intravitreal injection to assess bioactivity on vascular permeability. C57BL/6J mice, 6-8 weeks of age, were cared for in accordance with the Association for Research in Vision and Opthalmology Statement for the Use of Animals in Ophthalmic and Vision Research. For anesthesia, each received intramuscularly 20 mg/kg ketamine, 20 mg/kg xylazine and 800 mg/kg urethane in 0.3-0.4 ml of phosphate buffered saline (PBS, 1.06 mM KH2PO4, 0.15 M NaCl and 3.00 mM Na2HPO4, pH 7.4). Under 10× magnification, 1 μl of murine VEGF164 (12.6 ng/μl in PBS; R&D Systems, Minneapolis, Minn.) was delivered through a 20° beveled glass pipette, with a tip diameter of 13-20 μm. The contralateral eye received an equal volume of PBS alone or PBS containing 12.6 ng VEGF164, and a 20-fold molar excess of PEDF (232 ng), ACT (278 ng), HSP47 (278 ng), PEDFpep (28.1 ng), ACTpep (29.7 ng), or CHIMERApep (28.2 ng).
Fluorescein angiograghy. Twenty hours after intravitreal injections, each pupil was dilated with one drop of 1% atropine sulfate. After intraperitoneal injection of 0.1 ml of 25% fluorescein, successive retina photographs were taken with a Kowa Genesis camera. The first photograph was taken within 20 seconds of the intraperitoneal fluorescein injection. […] Fluorescein leakage manifests as indistinct vascular borders progressing to diffusely hazy fluorescence.

[2] = system: VEGF-induced retinal vascular permeability; experiment: Evans blue assay after intravitreal co-injection with VEGF164; assay type: in vivo, mouse (C57BL/6J); details: mouse eye, co-injected intravitreally with VEGF164 at 20-fold molar excess
Method: as §1
Evans Blue assay. […]
To assess the Evans blue-albumin concentration, the optical density of the retinal extract and plasma samples were measured at 620 nm and 740 nm. The retinal vasopermeability was calculated as the quantity of retinal Evans blue normalized to retinal dry weight, plasma Evans blue concentration, and circulation time by using the formula as described^32,44. […]

[3] = system: VEGF164-stimulated bovine retinal capillary endothelial cell migration; details: 8 h
Method: BRCEC migration assay. Bovine retinal capillary endothelial cells (BRCEC) were isolated and cultured as described 45. […] Cells, between the fifth and ninth passage, were starved overnight in MEM with D-Val and 2% fetal bovine serum. Polycarbonate filters (10 μm pore-size, PVPF; Osmonics Inc., Minnetonka, Minn.) were coated with 100 μg/ml collagen. Quadruplicates with test samples in MEM D-Val (28 μl), and 10^4 cells in MEM D-Val (50 μl) were placed in the lower and upper wells, respectively, of the microchemotaxis chamber (NeuroProbe, Gaithersburg, Md.). After incubating 8 hours at 37° C., the non-migrated cells on the upper surface of the filter were removed, and the filters were stained with Harris' hematoxylin. For each of the test samples, one 400× field per quadrant of each of the quadruplicates was counted. From the total cell number in the 4 fields, the mean and standard error of the quadruplicate wells were calculated. Baseline migration equaled the number of migrated cells with MEM D-Val without any added proteins or peptides. The difference between baseline and the number of migrated cells with VEGF added equals maximal total migration.

Sequence: VLLSPLSVATALSALSLGAEQRTESIIHRALYYDLISSPDIHGT [PEDFpep]
- effect on VEGF-induced fluorescein leakage / vascular permeability (fluorescein angiography) [1]: effectively inhibits
- inhibition of VEGF-induced retinal vascular permeability (Evans blue-albumin) ([2]; 24 h, VEGF-induced increase = 100%, mean ±SE): 83.7±17.1%
- effect on VEGF-induced vascular permeability by Evans blue assay ([2]; qualitative statement): effectively inhibited
- IC50 [3]: 3 nM

Reference: patent publication US20080293626A1, “Pigment epithelium-derived factor as a therapeutic agent for vascular leakage” (The Johns Hopkins University, priority 2003, published 2008)
